# Source: PubChem BioAssay AID1745844 (Carcinogenic Potency Database (CPDB), 2022)
# Several values for one entry are separate records, joined by “and”; a condition that tells them apart may be missing. Equal values may be shown once. Activity calls are given as the source filed them. The rule behind the calls is not given here.
# Test system: rodent lifetime carcinogenesis bioassay, tumor incidence TD50
# Experiment: chronic cancer bioassays in animals – CPDB, compiled studies (AID 1745844)
compound,measurement,setting,value
c1ccncc1,TD50,"mouse, strain B6C3F1, females, in drinking water, site: all sites, lesion: hemangioma + hemangiosarcoma, dosed 104 weeks, study length 104 weeks",690 mg/kg/day
same,TD50,"mouse, strain B6C3F1, females, in drinking water, site: all sites, lesion: hemangioma, dosed 104 weeks, study length 104 weeks",868 mg/kg/day
same,TD50,"mouse, strain B6C3F1, females, in drinking water, site: any site (literature study), lesion: several types, types named in the paper, dosed 104 weeks, study length 104 weeks",338 mg/kg/day
same,TD50,"mouse, strain B6C3F1, females, in drinking water, site: liver, lesion: hepatoblastoma + hepatocellular carcinoma, dosed 104 weeks, study length 104 weeks",27.2 mg/kg/day
same,TD50,"mouse, strain B6C3F1, females, in drinking water, site: liver, lesion: hepatoblastoma, dosed 104 weeks, study length 104 weeks",132 mg/kg/day
same,TD50,"mouse, strain B6C3F1, females, in drinking water, site: liver, lesion: hepatocellular adenoma + hepatoblastoma + hepatocellular carcinoma, dosed 104 weeks, study length 104 weeks",150 mg/kg/day
same,TD50,"mouse, strain B6C3F1, females, in drinking water, site: liver, lesion: hepatocellular adenoma, dosed 104 weeks, study length 104 weeks",41.9 mg/kg/day
same,TD50,"mouse, strain B6C3F1, females, in drinking water, site: liver, lesion: hepatocellular carcinoma, dosed 104 weeks, study length 104 weeks",41.6 mg/kg/day
same,TD50,"mouse, strain B6C3F1, females, in drinking water, site: lung, lesion: alveolar/bronchiolar adenoma + alveolar/bronchiolar carcinoma, dosed 104 weeks, study length 104 weeks",1990 mg/kg/day
same,TD50,"mouse, strain B6C3F1, males, in drinking water, site: any site (literature study), lesion: several types, types named in the paper, dosed 103 weeks, study length 103 weeks",25700 mg/kg/day
same,TD50,"mouse, strain B6C3F1, males, in drinking water, site: liver, lesion: hepatoblastoma + hepatocellular carcinoma, dosed 103 weeks, study length 103 weeks",22.1 mg/kg/day
same,TD50,"mouse, strain B6C3F1, males, in drinking water, site: liver, lesion: hepatoblastoma, dosed 103 weeks, study length 103 weeks",68.1 mg/kg/day
same,TD50,"mouse, strain B6C3F1, males, in drinking water, site: liver, lesion: hepatocellular adenoma + hepatoblastoma + hepatocellular carcinoma, dosed 103 weeks, study length 103 weeks",496 mg/kg/day
same,TD50,"mouse, strain B6C3F1, males, in drinking water, site: liver, lesion: hepatocellular adenoma, dosed 103 weeks, study length 103 weeks",488 mg/kg/day
same,TD50,"mouse, strain B6C3F1, males, in drinking water, site: liver, lesion: hepatocellular carcinoma, dosed 103 weeks, study length 103 weeks",28.6 mg/kg/day
same,TD50,"rat, strain Fischer 344, females, in drinking water, site: all sites, lesion: mononuclear-cell leukemia, dosed 104 weeks, study length 104 weeks",31.2 mg/kg/day
same,TD50,"rat, strain Fischer 344, females, in drinking water, site: any site (literature study), lesion: several types, types named in the paper, dosed 104 weeks, study length 104 weeks",32.9 mg/kg/day
same,TD50,"rat, strain Fischer 344, males, in drinking water, site: any site (literature study), lesion: several types, types named in the paper, dosed 103 weeks, study length 103 weeks",31 mg/kg/day
same,TD50,"rat, strain Fischer 344, males, in drinking water, site: kidney, lesion: tubule adenoma + tubule carcinoma, dosed 103 weeks, study length 103 weeks",67.3 mg/kg/day and 74.6 mg/kg/day
same,TD50,"rat, strain Fischer 344, males, in drinking water, site: kidney, lesion: tubule adenoma, dosed 103 weeks, study length 103 weeks",73.7 mg/kg/day and 75.6 mg/kg/day
same,TD50,"rat, strain Fischer 344, males, in drinking water, site: liver, lesion: hepatocellular adenoma + hepatoblastoma + hepatocellular carcinoma, dosed 103 weeks, study length 103 weeks",160 mg/kg/day
same,TD50,"rat, strain Wistar, males, in drinking water, site: any site (literature study), lesion: several types, types named in the paper, dosed 103 weeks, study length 103 weeks",7.14 mg/kg/day
same,TD50,"rat, strain Wistar, males, in drinking water, site: testis, lesion: interstitial-cell adenoma, bilateral + interstitial-cell adenoma, dosed 103 weeks, study length 103 weeks",22.4 mg/kg/day
same,TD50,"rat, strain Wistar, males, in drinking water, site: thyroid gland, lesion: follicular-cell adenoma, bilateral + follicular-cell adenoma, dosed 103 weeks, study length 103 weeks",38.4 mg/kg/day
CN(N=O)c1ccccc1,TD50,"rat, strain Chester Beatty albino, females, in drinking water, site: esophagus, lesion: benign tumor, dosed 67 weeks, study length 67 weeks",32 mg/kg/day
same,carcinogen call,"rat, strain Chester Beatty albino, females, in drinking water, site: esophagus, lesion: several types, types named in the paper, dosed 67 weeks, study length 67 weeks",positive
same,TD50,"rat, strain Chester Beatty albino, females, in drinking water, site: esophagus, lesion: squamous-cell carcinoma, dosed 67 weeks, study length 67 weeks",26.4 mg/kg/day
same,carcinogen call,"rat, strain Chester Beatty albino, females, in drinking water, site: liver, lesion: one or several types, types not named, dosed 67 weeks, study length 67 weeks",negative (inactive)
same,TD50,"rat, strain Chester Beatty albino, males, in drinking water, site: esophagus, lesion: benign tumor, dosed 60 weeks, study length 60 weeks",70.4 mg/kg/day
same,TD50,"rat, strain Chester Beatty albino, males, in drinking water, site: esophagus, lesion: several types, types named in the paper, dosed 60 weeks, study length 60 weeks",5.27 mg/kg/day
same,TD50,"rat, strain Chester Beatty albino, males, in drinking water, site: esophagus, lesion: squamous-cell carcinoma, dosed 60 weeks, study length 60 weeks",10.5 mg/kg/day
same,carcinogen call,"rat, strain Chester Beatty albino, males, in drinking water, site: liver, lesion: one or several types, types not named, dosed 60 weeks, study length 60 weeks",negative (inactive)
same,TD50,"rat, strain Fischer 344, females, in drinking water, site: esophagus, lesion: carcinoma, dosed 50 weeks, study length 114 weeks",0.458 mg/kg/day
same,TD50,"rat, strain Fischer 344, males, in drinking water, site: esophagus, lesion: several types, types named in the paper, dosed 50 weeks, study length 114 weeks",0.272 mg/kg/day
same,TD50,"rat, strain Sprague-Dawley, both sexes, in drinking water, site: esophagus, lesion: several types, types named in the paper, dosed 104 weeks, study length 104 weeks",0.0343 mg/kg/day
CC(O)CN(CC(C)O)N=O (stereo unspecified),TD50,"rat, strain Fischer 344, females, in drinking water, site: esophagus, lesion: carcinoma, dosed 42 weeks, study length 55 weeks",1.25 mg/kg/day
same,TD50,"rat, strain Fischer 344, females, in drinking water, site: esophagus, lesion: several types, types named in the paper, dosed 42 weeks, study length 55 weeks",0.813 mg/kg/day
same,TD50,"rat, strain Fischer 344, females, in drinking water, site: nasal cavity, lesion: olfactory carcinoma, dosed 42 weeks, study length 55 weeks",3.04 mg/kg/day
same,TD50,"rat, strain MRC-Wistar, males, by gavage, site: prostate, lesion: carcinoma, dosed 74 weeks, study length 74 weeks",437 mg/kg/day
same,TD50,"rat, strain Wistar, males, in drinking water, site: liver, lesion: hemangioma, dosed 45 weeks, study length 52 weeks",4.55 mg/kg/day
same,TD50,"rat, strain Wistar, males, in drinking water, site: liver, lesion: hepatocellular carcinoma, dosed 45 weeks, study length 52 weeks",2.4 mg/kg/day
same,TD50,"rat, strain Wistar, males, in drinking water, site: lung, lesion: adenocarcinoma, dosed 45 weeks, study length 52 weeks",3.36 mg/kg/day
same,TD50,"rat, strain Wistar, males, in drinking water, site: lung, lesion: adenoma, dosed 45 weeks, study length 52 weeks",0.881 mg/kg/day
same,TD50,"rat, strain Wistar, males, in drinking water, site: lung, lesion: carcinoma, combined glandular and squamous type, dosed 45 weeks, study length 52 weeks",9.48 mg/kg/day
C=C/C1=C/C(C)C(C)(OC(C)=O)C(=O)OCC2=CC[N+]3(C)CCC(OC1=O)C23O (stereo unspecified),TD50,"rat, strain ACI, both sexes, in drinking water, site: liver, lesion: hemangioendothelial sarcoma, dosed 48 weeks, study length 68 weeks",3.01 mg/kg/day
same,TD50,"rat, strain ACI, both sexes, in drinking water, site: liver, lesion: neoplastic nodule, dosed 48 weeks, study length 68 weeks",0.697 mg/kg/day
same,TD50,"rat, strain ACI, both sexes, in drinking water, site: liver, lesion: several types, types named in the paper, dosed 48 weeks, study length 68 weeks",0.5 mg/kg/day
O=NN1CCCN(N=O)CC1,TD50,"rat, strain Fischer 344, females, in drinking water, site: esophagus, lesion: several types, types named in the paper, dosed 30 weeks, study length 133 weeks",0.253 mg/kg/day
same,TD50,"rat, strain Fischer 344, females, in drinking water, site: esophagus, lesion: several types, types named in the paper, dosed 60 weeks, study length 82 weeks",0.0553 mg/kg/day
same,TD50,"rat, strain Fischer 344, females, in drinking water, site: esophagus, lesion: several types, types named in the paper, dosed 120 weeks, study length 133 weeks",0.105 mg/kg/day
same,carcinogen call,"rat, strain Fischer 344, females, in drinking water, site: liver, lesion: several types, types named in the paper, dosed 30 weeks, study length 133 weeks",positive
same,TD50,"rat, strain Fischer 344, females, in drinking water, site: liver, lesion: several types, types named in the paper, dosed 120 weeks, study length 133 weeks",0.0973 mg/kg/day
same,carcinogen call,"rat, strain Fischer 344, females, in drinking water, site: nasal cavity, lesion: olfactory carcinoma, dosed 30 weeks, study length 133 weeks",positive
same,TD50,"rat, strain Fischer 344, females, in drinking water, site: nasal cavity, lesion: olfactory carcinoma, dosed 60 weeks, study length 82 weeks",0.207 mg/kg/day
same,TD50,"rat, strain Fischer 344, females, in drinking water, site: tongue, lesion: basal-cell papilloma, dosed 120 weeks, study length 133 weeks",0.63 mg/kg/day
same,TD50,"rat, strain Fischer 344, females, in drinking water, site: upper gastrointestinal tract, lesion: carcinoma, dosed 30 weeks, study length 133 weeks",0.24 mg/kg/day
same,TD50,"rat, strain Fischer 344, females, in drinking water, site: upper gastrointestinal tract, lesion: carcinoma, dosed 60 weeks, study length 82 weeks",0.0469 mg/kg/day
same,TD50,"rat, strain Fischer 344, females, in drinking water, site: upper gastrointestinal tract, lesion: several types, types named in the paper, dosed 30 weeks, study length 133 weeks",0.708 mg/kg/day
same,TD50,"rat, strain Fischer 344, females, in drinking water, site: upper gastrointestinal tract, lesion: several types, types named in the paper, dosed 60 weeks, study length 82 weeks",0.0297 mg/kg/day
same,TD50,"rat, strain Fischer 344, females, in drinking water, site: upper gastrointestinal tract, lesion: several types, types named in the paper, dosed 120 weeks, study length 133 weeks",0.0914 mg/kg/day
CCCc1cc(=O)[nH]c(=S)[nH]1,TD50,"mouse, strain C57BL, both sexes, in feed, site: pituitary gland, lesion: adenoma, dosed 73 weeks, study length 73 weeks",409 mg/kg/day
same,TD50,"rat, strain Long-Evans, males, in feed, site: thyroid gland, lesion: adenoma, dosed 52 weeks, study length 52 weeks",10.3 mg/kg/day
same,TD50,"rat, strain Wistar albino, females, in drinking water, site: thyroid gland, lesion: adenoma, dosed 78 weeks, study length 78 weeks",15.8 mg/kg/day
same,TD50,"rat, strain Wistar albino, females, in drinking water, site: thyroid gland, lesion: carcinoma, dosed 78 weeks, study length 78 weeks",115 mg/kg/day
same,TD50,"rat, strain Wistar albino, males, in drinking water, site: thyroid gland, lesion: adenoma, dosed 78 weeks, study length 78 weeks",17.2 mg/kg/day
same,TD50,"rat, strain Wistar albino, males, in drinking water, site: thyroid gland, lesion: carcinoma, dosed 78 weeks, study length 78 weeks",79.3 mg/kg/day
same,carcinogen call,"rat, strain Wistar, males, in drinking water, site: thyroid gland, lesion: adenoma, dosed 26 weeks, study length 104 weeks",negative (inactive)
O=C(O)c1cc(Oc2ccc(C(F)(F)F)cc2Cl)ccc1[N+](=O)[O-],TD50,"mouse, strain B6C3F1, females, in feed, site: liver, lesion: hepatocellular adenoma, dosed 78 weeks, study length 78 weeks",434 mg/kg/day
same,TD50,"mouse, strain B6C3F1, females, in feed, site: liver, lesion: hepatocellular carcinoma, dosed 78 weeks, study length 78 weeks",1380 mg/kg/day
same,TD50,"mouse, strain B6C3F1, females, in feed, site: liver, lesion: several types, types named in the paper, dosed 78 weeks, study length 78 weeks",328 mg/kg/day
same,TD50,"mouse, strain B6C3F1, females, in feed, site: stomach, lesion: papilloma, dosed 78 weeks, study length 78 weeks",1050 mg/kg/day
same,TD50,"mouse, strain B6C3F1, males, in feed, site: liver, lesion: hepatocellular adenoma, dosed 78 weeks, study length 78 weeks",331 mg/kg/day
same,TD50,"mouse, strain B6C3F1, males, in feed, site: liver, lesion: hepatocellular carcinoma, dosed 78 weeks, study length 78 weeks",395 mg/kg/day
same,TD50,"mouse, strain B6C3F1, males, in feed, site: liver, lesion: several types, types named in the paper, dosed 78 weeks, study length 78 weeks",149 mg/kg/day
same,TD50,"mouse, strain B6C3F1, males, in feed, site: stomach, lesion: papilloma, dosed 78 weeks, study length 78 weeks",2050 mg/kg/day
same,TD50,"mouse, strain Charles River CD1, females, in feed, site: liver, lesion: hepatocellular adenoma, dosed 104 weeks, study length 104 weeks",160 mg/kg/day
same,TD50,"mouse, strain Charles River CD1, females, in feed, site: liver, lesion: hepatocellular carcinoma, dosed 104 weeks, study length 104 weeks",715 mg/kg/day
same,TD50,"mouse, strain Charles River CD1, females, in feed, site: liver, lesion: several types, types named in the paper, dosed 104 weeks, study length 104 weeks",126 mg/kg/day
same,TD50,"mouse, strain Charles River CD1, males, in feed, site: liver, lesion: hepatocellular adenoma, dosed 104 weeks, study length 104 weeks",187 mg/kg/day
same,TD50,"mouse, strain Charles River CD1, males, in feed, site: liver, lesion: hepatocellular carcinoma, dosed 104 weeks, study length 104 weeks",307 mg/kg/day
same,TD50,"mouse, strain Charles River CD1, males, in feed, site: liver, lesion: several types, types named in the paper, dosed 104 weeks, study length 104 weeks",93.8 mg/kg/day
